In US11591301B2, “Indoleamine-2,3-dioxygenase inhibitor, preparation method therefor and use thereof” (HINOVA PHARMACEUTICALS INC., priority 2018, dated 2023):

What was measured:
[1] = target: human IDO1 protease (Homo sapiens (Human), UniProt P14902); test: Inhibitory activity against human IDO1 protease (absorbance test method); format: biochemical; conditions: IDO1 (His-tag) enzyme, absorbance at 320 nm
Experimental: IDO1 (His-tag) enzyme(BPS Bioscience), L-tryptophan (Sigma), methylene blue (Sigma), Catalase originated from the liver of cattle (Sigma), L-ascorbic acid (Sigma), glycerol (Sigma), potassium dihydrogen phosphate solution (Sigma), Tween 20 (Sigma), automatic sampling platformLiquid handler (Bravo & Echo), microplate ReaderSpectraMax M5e (Molecular Devices).
2) Test Method of Compounds: The Compounds are Determined by Absorbance Test Method:
The tested compounds are dissolved in DMSO to prepare a high concentration of storage solution. The stock solution of reference compound was diluted with DMSO to prepare a 100× solution. In the first column of the working plate, 8 μL above tested compounds and 8 μL 100× reference compound were respectively added as the highest concentration, and then the highest concentrations were subjected to three times dilution to obtain 11 concentrations and prepare 100× solution. 0.5 μL solution was transferred from the above plate to the detection plate. To each well was added 0.5 μL 100× compound solution. For HPE and ZPE control wells, 0.5 μL 100% DMSO was added. 25 μL 2×IDO1 (His-tag) enzyme solution (containing L-ascorbic acid, methylene blue, and catalase) was added to each well. 25 μL reaction solution without IDO1 (His-tag) enzyme was added into HPE control well. The test plate was centrifugated at 1000 rpm for 1 minute to mix well. Then, the test plate was incubated at room temperature for 30 minutes. 25 μL above 2× substrate (L-tryptophan) solution was added to each well. The test plate was centrifugated at 1000 rpm for 1 minute to mix well. The detection plate was placed on ELISA (SpectraMax M5e), the temperature was set at 25° C., and the absorbance (OD value) was measured at 320 nm every 10 minutes till 60 minutes.
Calculating the increase ratio of absorbance: the slope of the absorbance increase curve from 10 min to 60 min is derived from SpectralMax M5e. The inhibition coefficient of compound was calculated: the inhibition ratio of compound=(the absorbance increase ratio of ZPE control well−the absorbance increase ratio of compound well)/(the absorbance increase ratio of ZPE control well−the absorbance increase ratio of HPE control well)×100. Results was analyzed by Prism 5.0.

[2] = target: IDO1 protease activity in Hela cells (Homo sapiens (Human), UniProt P14902); test: Inhibition of IDO protease in HeLa cells (IDO/kynurenine experiment, IFN-γ induced); format: cell-based; conditions: 10 ng/mL IFN-γ, 48 h, OD480 nm, read-out: IC50, inhibitory activity against IDO1 protease activity in Hela cells
Experimental: 2) Experimental Method for Compound Assay 2.1 Seeding HeLa Cells into 96 Well Plate
The medium was taken out from the flask and the cells were washed with PBS. TrypLE solution was added to the flask to make the cells separate. The cells were further washed once with fresh medium containing 10% FBS, and then re-suspended in the medium until the final concentration was 2.3×10^6/mL. Only cells with activity greater than 90% can be used for detection. HeLa cells were planted into 100 μL suitable growth median 96 well plate at 3000 cells/well. The cells were incubated at 37° C. under 5% CO2 overnight.
The compound was diluted to the concentration of 10 mM with DMSO, that was then continuously diluted 3 times to get 9 concentrations. 5 μL compound was added into 45 μL media as the median dilution (10 times dilution, containing 10% DMSO). 96 μL fresh growth media were added to each well to reach the total volume of 196 μL. 2 μL compound solution was taken from the mid-diluted solution and added to the cells in the wells of the assay plate, and then incubated in a 5% CO2 incubator at 37° C. for 30 minutes. 2 μL human IFN-γ solution was added to reach a total volume of 200 μL, with the final concentration of 10 ng/mL, and the final concentration is 0.1%. The cells were incubated in 5% CO2 incubator at 37° C. for 48 h.
After incubating for another 48 hours in a 5% CO2 incubator at 37° C., 140 μL supernatant was added to each well and transferred to a new 96-well plate. 10 μL of 6.1N CCl3COOH was further added to each well, and incubated at 50° C. for 30 min after sealing. The plate was then centrifuged at 2500 rpm for 10 minutes. 100 μL supernatant in each well was transferred to another 96-well assay plate and mixed with 100 μL of 6% (w/v) p-dimethylaminobenzaldehyde. EnSpire was used to read the plate at OD480 nm.
The average data of HC (high control: 10 ng/mL IFN-γ) and LC (low control: no IFN-γ) were calculated for each screening plate. Percent inhibition of compound well (% inh)=100*(aveHC−cpd well)/(aveHC−ave LC). Finally, GraphPad Prism 6 software was used to calculate the IC50 values of compounds and draw the effect-concentration curve.

IDO1 protease activity in Hela cells, sequence (P14902 whole entry): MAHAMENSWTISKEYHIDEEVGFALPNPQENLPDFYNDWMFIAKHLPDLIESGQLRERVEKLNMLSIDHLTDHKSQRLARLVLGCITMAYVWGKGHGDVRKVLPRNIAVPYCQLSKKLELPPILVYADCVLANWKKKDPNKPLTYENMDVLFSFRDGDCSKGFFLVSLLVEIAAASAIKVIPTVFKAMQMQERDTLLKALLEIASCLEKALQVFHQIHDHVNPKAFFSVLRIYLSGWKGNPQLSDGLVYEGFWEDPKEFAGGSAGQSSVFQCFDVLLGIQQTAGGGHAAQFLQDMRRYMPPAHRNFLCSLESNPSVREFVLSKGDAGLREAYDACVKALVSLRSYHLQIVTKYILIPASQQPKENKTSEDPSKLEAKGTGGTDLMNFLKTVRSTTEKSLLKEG
human IDO1 protease, sequence (P14902 whole entry): as above

Row | Compound | IC50 [1] [nM] | IC50 [2] [nM] | IC50 ([1]; listed as 11) [nM]
1 | CN(C)S(=O)(=O)CCNc1nonc1/C(=N/O)Nc1ccc(F)c(Br)c1 [Example 7, N-(3-bromo-4-fluorophenyl)-N′-hydroxyl-4-((2-N,N-dimethylsulfamoylethyl)amino)-1,2,5-oxadiazol-3-formamidine] | 115 |  | 
2 | O=S(=O)(CCCNc1nonc1C(=NO)Nc1ccc(F)c(Br)c1)NCCO [Example 16, N-(3-bromo-4-fluorophenyl)-N′-hydroxyl-4-((3-(N-(2-hydroxylethyl)sulfamoyl)propyl)amino)-1,2,5-oxadiazol-3-formamidine] | 51 | 32 | 
3 | CCNS(=O)(=O)CCNc1nonc1C(=NO)Nc1ccc(F)c(Br)c1 [Example 3, N-(3-bromo-4-fluorophenyl)-N′-hydroxyl-4-((2-(N-ethylsulfamoyl)ethyl)amino)-1,2,5-oxadiazol-3-formamidine] | 74 | 35 | 
4 | CONS(=O)(=O)CCCNc1nonc1C(=NO)Nc1ccc(F)c(Br)c1 [Example 20, N-(3-bromo-4-fluorophenyl)-N′-hydroxyl-4-((3-(N-methoxylsulfamoyl)propyl)amino)-1,2,5-oxadiazol-3-formamidine] | 99 |  | 
5 | [2H]C([2H])([2H])NS(=O)(=O)CCCCNc1nonc1/C(=N/O)Nc1ccc(F)c(Br)c1 [Example 29, N-(3-bromo-4-fluorophenyl)-N′-hydroxyl-4-((4-(N-deuteratedmethylsulfamoyl)butyl)amino)-1,2,5-oxadiazol-3-formamidine] |  | 20 | 
6 | O=S(=O)(CCNc1nonc1C(=NO)Nc1ccc(F)c(Br)c1)NCCO [Example 5, N-(3-bromo-4-fluorophenyl)-N′-hydroxyl-4-((2-(N-(2-hydroxylethyl)sulfamoyl)ethyl)amino)-1,2,5-oxadiazol-3-formamidine] | 49 | 15 | 
7 | O=S(=O)(CCCNc1nonc1C(=NO)Nc1ccc(F)c(Br)c1)NC1CC1 [Example 14, N-(3-bromo-4-fluorophenyl)-N′-hydroxyl-4-((3-(N-cyclopropylsulfamoyl)propyl)amino)-1,2,5-oxadiazol-3-formamidine] | 99 | 37 | 
8 | O=S(=O)(CCCNc1nonc1C(=NO)Nc1ccc(F)c(Br)c1)NO [Example 21, N-(3-bromo-4-fluorophenyl)-N′-hydroxyl-4-((3-(N-hydroxylsulfamoyl)propyl)amino)-1,2,5-oxadiazol-3-formamidine] | 99 |  | 
9 | O=S(=O)(CCNc1nonc1/C(=N/O)Nc1ccc(F)c(Br)c1)NCC(F)F [Example 6] | 87 |  | 44
10 | CC(C)NS(=O)(=O)CCNc1nonc1C(=NO)Nc1ccc(F)c(Br)c1 [Example 4, N-(3-bromo-4-fluorophenyl)-N′-hydroxyl-4-((2-(isopropylsulfamoyl)ethyl)amino)-1,2,5-oxadiazol-3-formamidine] | 185 |  | 
11 | [2H]C([2H])([2H])NS(=O)(=O)CCCSc1nonc1/C(=N/O)Nc1ccc(F)c(Br)c1 [Example 32] |  | 17 | 
12 | [2H]C([2H])([2H])N(C([2H])([2H])[2H])S(=O)(=O)CCCCNc1nonc1/C(=N/O)Nc1ccc(F)c(Br)c1 [Example 30] |  | 24 | 
13 | O=S(=O)(CCCCNc1nonc1/C(=N/O)Nc1ccc(F)c(Br)c1)N1CCC1 [Example 25, 4-((4-(azetidin-1-ylsulfonyl)butyl)amino)-N-(3-bromo-4-fluorophenyl)-N′-hydroxyl-1,2,5-diazol-3-formamidine] |  | 93 | 
14 | [2H]C([2H])([2H])NS(=O)(=O)CCCSc1nonc1/C(=N/O)Nc1cccc(Br)c1F [Example 33, N-(3-bromo-2-fluorophenyl)-N′-hydroxyl-4-((3-(N-trideuteratedmethylsulfamoyl)propyl)sulfur)-1,2,5-oxadiazol-3-formamidine] |  | 69 | 
15 | NS(=O)(=O)CCOCCNc1nonc1/C(=N/O)Nc1ccc(F)c(Br)c1 [Example 31, N-(3-bromo-4-fluorophenyl)-N′-hydroxyl-4-(2-(2-aminosulfonylethoxyl)-ethylamine)-1,2,5-diazol-3-formamidine] |  | 68 | 
16 | N-(3-bromo-4-fluorophenyl)-N′-hydroxyl-4-((2-(morpholinylsulfamoyl)ethyl)amino)-1,2,5-oxadiazol-3-formamidine [Example 9] | 162 |  | 
17 | CNS(=O)(=O)CCNc1nonc1C(=NO)Nc1ccc(F)c(Br)c1 [Example 2, N-(3-bromo-4-fluorophenyl)-N′-hydroxyl-4-((2-(N-methylsulfamoyl)ethyl)amino)-1,2,5-oxadiazol-3-formamidine] | 54 | 19 | 
18 | [2H]C([2H])([2H])N(C([2H])([2H])[2H])S(=O)(=O)CCCNc1nonc1/C(=N/O)Nc1ccc(F)c(Br)c1 [Example 28] | 106 | 16 | 
19 | CCNS(=O)(=O)CCCNc1nonc1C(=NO)Nc1ccc(F)c(Br)c1 [Example 17, N-(3-bromo-4-fluorophenyl)-N′-hydroxyl-4-((3-(N-ethylsulfamoyl)propyl)amino)-1,2,5-oxadiazol-3-formamidine] |  | 10 | 
20 | CC(C)NS(=O)(=O)CCCNc1nonc1/C(=N/O)Nc1ccc(F)c(Br)c1 [Example 13, N-(3-bromo-4-fluorophenyl)-N′-hydroxyl-4-((3-(N-isopropylsulfamoyl)propyl)amino)-1,2,5-oxadiazol-3-formamidine] | 63 | 30 | 
21 | O=S(=O)(CCCCNc1nonc1/C(=N/O)Nc1ccc(F)c(Br)c1)N1CC(F)C1 [Example 26, N-(3-bromo-4-fluorophenyl)-4-((4-((3-fluorazetidin-1-yl)sulfonyl)butyl)amino)-N′-hydroxyl-1,2,5-oxadiazol-3-amide] |  | 113 | 
